Assay results reported in patent US20030158250A1, “Agents correcting gene expression regulatory error” (priority 2000, published 2003).

Test system: HO1 protein
Experiment: HO1 protein induction in RAW 264.7 cells (Western blot)
Assay type: cell-based
Parameters: key to Intensity of Bands of HO1 Protein: those showing no bands are indicated by “−,”; the intensities of the bands are indicated by +−, +, ++ in the ascending order of the intensities of the bands; the intensities of the bands are indicated by +−, +, ++ in the ascending order of the intensities of the bands; the intensities of the bands are indicated by +−, +, ++ in the ascending order of the intensities of the bands
Details: 15 hours
Method: RAW 264.7 cells (ATCC TIB 71) were suspended in a Dulbecco's modified Eagle's medium (manufactured by Bio Whittaker; 12-604F) containing 10% fetal bovine serum (manufactured by Gibco), so as to have a concentration of 3×10^5 cells/ml. The cell suspension was added to each well of a 6-well microtiter plate in a volume of 5 ml each. The cells were cultured at 37° C. in the presence of 5% CO2 gas overnight. To each well was added 50 μl of 4 mM, 2 mM or 1 mM DGE aqueous solution (each of final concentrations: 40 μM, 20 μM or 10 μM), and the cells were cultured for 15 hours. […] The cells were harvested by peeling off the cells from the plate with a scraper. The harvested cells were suspended in 0.1 M Tris-HCl buffer (pH 7.5) containing 0.05 mM pepstatin (manufactured by Sigma, P5318), 0.2 mM leupeptin (manufactured by Sigma, L2884), 1 mM phenylmethylsulfonyl fluoride (manufactured by nakalai tesque, 273-27), 10 mM disodium dihydrogenethylenediaminetetraacetate and 0.1% Triton X-100, and subjected to freezing and thawing once. Thereafter, the supernatant obtained by centrifugation was used as a protein fraction. The protein content in the protein fraction was assayed by Micro BCA Protein Assay Reagent (one manufactured by Pierce sold by Takara Shuzo Co., Ltd., P7411). Each of the resulting protein fraction samples was mixed with an equal volume of 0.125 M Tris-HCl buffer (pH 6.8) containing 4% sodium lauryl sulfate (SDS), 2% 2-mercaptoethanol,
0.001% Bromophenol Blue and 20% glycerol, and the mixture was treated at 100° C. for 5 minutes. A mixture containing a protein in an amount of 10 μg or so was loaded on 12.5% SDS-polyacrylamide gel, and electrophoresed with a constant current of 20 mA. In a blotting buffer containing 48 mM Tris, 39 mM glycine, 20% methanol, 0.0375% SDS, the gel after the electrophoresis was transferred to a PDVF membrane (manufactured by Millipore Corporation, IPVHOOO 10) in accordance with the attached protocol, using transblot SD cell semi-drive blotting device (manufactured by BioRad), at a constant voltage of 15 V for 25 minutes. The transferred PVDF membrane was blocked overnight in a Block Ace (manufactured by DAINIPPON PHARMACEUTICAL CO., LTD., UK-B25) solution at 4° C. The blocked membrane was washed for 15 minutes thrice with phosphate-buffered physiological saline containing 0.1% Tween 20 under gentle shaking. Thereafter, the membrane was subjected to the reaction under gentle shaking in phosphate-buffered physiological saline containing 10% Block Ace with a 200 ng/ml anti-HOl antibody (N-19, manufactured by Santa Cruz, sc-7696) and 0.1% Tween 20 at room temperature for 1 hour, and was washed for 15 minutes thrice with phosphate-buffered physiological saline containing 0.1% Tween 20 under gentle shaking. Next, the membrane was subjected to the reaction under gentle shaking in phosphate-buffered physiological saline with 10% Block Ace with 0.1% peroxidase-conjugated rabbit anti-goat IgG (H+L) antibody (manufactured by Zymed, 61-1620) and 0.1% Tween 20 at room temperature for 1 hour, and was washed for 15 minutes five times with phosphate-buffered physiological saline containing 0.1% Tween 20 under gentle shaking. Subsequently, a PVDF membrane was stained by using Western blot Chemiluminescence Reagent Plus (one manufactured by NEN Life Science Products sold by Daiichikagaku, NEL103) in accordance with the attached protocol, and sensitized on an X-ray film (manufactured by Kodak, CAT 1651454). The sensitized film was developed with FPM800 (manufactured by Fuji Photo Film Co., Ltd.).
As a result, there could be confirmed a band ascribed to HO1 protein in the group with addition of DGE. […] In the table, + symbols were given in accordance with the intensity of the band for HO1 protein. In other words, in Table 3, those showing no bands are indicated by “−,” and the intensities of the bands are indicated by +−, +, ++ in the ascending order of the intensities of the bands.

`O=C1C=CC(CO)OC1O` [DGE, L-glycero-1,5-epoxy-1αβ,6-dihydroxy-cis-hex-3-en-2-one] was tested, and the “induction action for HO production (band ascribed to HO1 protein)” value (DGE at 10 to 40 μM) was “DGE concentration-dependent”, the “Intensity of Bands of HO1 Protein” value (final concentration 10 μM) was “+−” and the “Intensity of Bands of HO1 Protein” value (final concentration 20 μM) was “+”. For the same molecule, the “Intensity of Bands of HO1 Protein” value (final concentration 40 μM) was “++”.
